A word on the CLint scaled: it is a measure of how fast metabolising enzymes remove a compound, apart from limits set by blood flow. For orientation: IC50 means the concentration that gives 50% inhibition. Lower therefore signals greater potency. For orientation: EC50 means the concentration at which the effect is half-maximal. Low readings indicate an effect from little substance, high ones a need for much substance.

Results on twelve compounds are retold here after publication PMC3166797 (Journal of medicinal chemistry, 2011).

Where two headings read alike, the source gives them in different places.

The subject of one series is mGlu1. The settings on record: cited from earlier work.
In series [1] the test system is acute rodent models of Parkinson's disease. The conditions noted are these: icv injection or systemically in a 50% DMSO vehicle; cited from earlier work.
The conditions of series [2]: dosed systemically in a nontoxic vehicle; cited from earlier work.
In a further series the target is rat mGlu4 (Rattus norvegicus, UniProt P31423). The series can be described thus: thallium flux in HEK cells expressing rat mGlu4 with GIRK channels. Format: cell-based. The conditions noted are these: maximal PAM response normalized to control PAM 1 (PHCCC); mean ± SEM.
rat mGlu4, sequence (P31423 33-912): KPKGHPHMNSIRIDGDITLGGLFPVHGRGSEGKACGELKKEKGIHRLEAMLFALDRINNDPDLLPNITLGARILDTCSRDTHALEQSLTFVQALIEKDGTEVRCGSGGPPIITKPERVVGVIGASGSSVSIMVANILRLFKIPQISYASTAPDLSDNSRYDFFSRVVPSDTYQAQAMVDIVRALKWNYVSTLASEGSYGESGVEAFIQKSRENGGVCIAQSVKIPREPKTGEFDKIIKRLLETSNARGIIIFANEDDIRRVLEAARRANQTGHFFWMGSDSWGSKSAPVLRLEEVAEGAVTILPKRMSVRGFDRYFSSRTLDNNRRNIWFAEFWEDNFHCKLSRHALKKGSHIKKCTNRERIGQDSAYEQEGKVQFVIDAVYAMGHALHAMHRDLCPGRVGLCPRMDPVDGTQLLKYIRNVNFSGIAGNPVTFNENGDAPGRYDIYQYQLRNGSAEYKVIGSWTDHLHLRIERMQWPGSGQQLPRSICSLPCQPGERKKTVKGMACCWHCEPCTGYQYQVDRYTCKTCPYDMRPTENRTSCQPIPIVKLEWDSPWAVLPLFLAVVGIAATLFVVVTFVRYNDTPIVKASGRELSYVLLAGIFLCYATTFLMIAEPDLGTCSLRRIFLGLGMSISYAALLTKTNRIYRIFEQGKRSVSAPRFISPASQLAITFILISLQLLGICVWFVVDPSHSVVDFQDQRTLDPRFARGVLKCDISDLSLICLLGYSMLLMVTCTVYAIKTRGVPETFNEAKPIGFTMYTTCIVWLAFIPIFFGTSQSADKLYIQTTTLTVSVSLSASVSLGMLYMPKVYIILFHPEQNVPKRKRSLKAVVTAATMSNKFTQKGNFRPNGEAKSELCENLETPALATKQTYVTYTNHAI
The next series in a line: microsomal stability. The settings on record: for Rat Clint: microsomal intrinsic clearance in vitro; for CLint scaled at 1 µM: rat, microsomes.
For the next series, the target named is CYP2D6 (Homo sapiens, UniProt P10635). The series can be described thus: CYP450 enzyme inhibition, CYP2D6. The conditions noted are these: P450 2D6, CYP2D6 inhibition.
CYP2D6, sequence (P10635 whole entry): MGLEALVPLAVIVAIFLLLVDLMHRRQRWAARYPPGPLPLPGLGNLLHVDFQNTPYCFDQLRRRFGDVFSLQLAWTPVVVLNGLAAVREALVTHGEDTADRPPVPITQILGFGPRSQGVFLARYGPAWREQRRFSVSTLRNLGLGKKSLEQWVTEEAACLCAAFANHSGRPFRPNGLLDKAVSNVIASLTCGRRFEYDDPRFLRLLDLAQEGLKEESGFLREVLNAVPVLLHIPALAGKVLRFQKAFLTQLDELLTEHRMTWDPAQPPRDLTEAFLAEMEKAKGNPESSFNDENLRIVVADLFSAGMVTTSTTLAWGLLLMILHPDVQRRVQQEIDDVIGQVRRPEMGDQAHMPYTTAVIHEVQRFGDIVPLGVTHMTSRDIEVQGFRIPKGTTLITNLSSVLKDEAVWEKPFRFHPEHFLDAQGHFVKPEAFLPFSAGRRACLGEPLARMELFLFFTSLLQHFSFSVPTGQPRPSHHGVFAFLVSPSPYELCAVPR
Another series concerns the target CYP3A4 (Homo sapiens, UniProt P08684). The series can be described thus: CYP450 enzyme inhibition, CYP3A4.
The target of a further series is T1, CYP1A2 (Homo sapiens, UniProt P05177).
T1 sequence (P05177 1-516): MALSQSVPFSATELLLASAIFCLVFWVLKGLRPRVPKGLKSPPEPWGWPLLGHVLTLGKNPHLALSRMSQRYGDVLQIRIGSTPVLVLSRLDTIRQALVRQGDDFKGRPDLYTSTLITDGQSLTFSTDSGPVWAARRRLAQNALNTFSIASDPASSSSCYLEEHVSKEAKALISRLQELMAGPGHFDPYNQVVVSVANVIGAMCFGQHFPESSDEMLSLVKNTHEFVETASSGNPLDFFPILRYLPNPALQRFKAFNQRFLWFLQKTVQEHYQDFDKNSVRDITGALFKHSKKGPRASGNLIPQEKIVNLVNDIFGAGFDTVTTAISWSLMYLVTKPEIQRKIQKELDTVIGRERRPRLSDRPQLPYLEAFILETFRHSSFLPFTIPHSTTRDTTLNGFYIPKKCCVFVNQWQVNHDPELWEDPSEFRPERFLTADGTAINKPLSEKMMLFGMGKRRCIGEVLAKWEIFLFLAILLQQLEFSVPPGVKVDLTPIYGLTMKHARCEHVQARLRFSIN
Put plainly: CYP450 enzyme inhibition, CYP1A2.

Another series deals with CYP2C9 (Homo sapiens, UniProt P11712). Put plainly: CYP450 enzyme inhibition, CYP2C9. The conditions noted are these: P450 2C9, CYP2C9 inhibition.
CYP2C9, sequence (P11712 whole entry): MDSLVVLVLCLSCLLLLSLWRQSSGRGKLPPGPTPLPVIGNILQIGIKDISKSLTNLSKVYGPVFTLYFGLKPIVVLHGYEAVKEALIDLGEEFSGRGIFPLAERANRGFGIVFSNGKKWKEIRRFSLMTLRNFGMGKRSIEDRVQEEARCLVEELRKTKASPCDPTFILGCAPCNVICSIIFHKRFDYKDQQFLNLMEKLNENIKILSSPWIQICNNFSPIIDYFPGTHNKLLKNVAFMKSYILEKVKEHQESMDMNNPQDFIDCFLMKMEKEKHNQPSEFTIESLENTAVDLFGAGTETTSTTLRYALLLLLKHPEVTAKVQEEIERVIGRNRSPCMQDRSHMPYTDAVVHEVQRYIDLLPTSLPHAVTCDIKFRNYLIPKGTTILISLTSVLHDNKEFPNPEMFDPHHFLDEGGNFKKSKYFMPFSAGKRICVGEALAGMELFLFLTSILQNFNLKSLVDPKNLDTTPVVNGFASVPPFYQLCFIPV
Another series deals with human mGlu4 (Homo sapiens, UniProt Q14833). Put plainly: cell-based.
human mGlu4, sequence (Q14833 33-912): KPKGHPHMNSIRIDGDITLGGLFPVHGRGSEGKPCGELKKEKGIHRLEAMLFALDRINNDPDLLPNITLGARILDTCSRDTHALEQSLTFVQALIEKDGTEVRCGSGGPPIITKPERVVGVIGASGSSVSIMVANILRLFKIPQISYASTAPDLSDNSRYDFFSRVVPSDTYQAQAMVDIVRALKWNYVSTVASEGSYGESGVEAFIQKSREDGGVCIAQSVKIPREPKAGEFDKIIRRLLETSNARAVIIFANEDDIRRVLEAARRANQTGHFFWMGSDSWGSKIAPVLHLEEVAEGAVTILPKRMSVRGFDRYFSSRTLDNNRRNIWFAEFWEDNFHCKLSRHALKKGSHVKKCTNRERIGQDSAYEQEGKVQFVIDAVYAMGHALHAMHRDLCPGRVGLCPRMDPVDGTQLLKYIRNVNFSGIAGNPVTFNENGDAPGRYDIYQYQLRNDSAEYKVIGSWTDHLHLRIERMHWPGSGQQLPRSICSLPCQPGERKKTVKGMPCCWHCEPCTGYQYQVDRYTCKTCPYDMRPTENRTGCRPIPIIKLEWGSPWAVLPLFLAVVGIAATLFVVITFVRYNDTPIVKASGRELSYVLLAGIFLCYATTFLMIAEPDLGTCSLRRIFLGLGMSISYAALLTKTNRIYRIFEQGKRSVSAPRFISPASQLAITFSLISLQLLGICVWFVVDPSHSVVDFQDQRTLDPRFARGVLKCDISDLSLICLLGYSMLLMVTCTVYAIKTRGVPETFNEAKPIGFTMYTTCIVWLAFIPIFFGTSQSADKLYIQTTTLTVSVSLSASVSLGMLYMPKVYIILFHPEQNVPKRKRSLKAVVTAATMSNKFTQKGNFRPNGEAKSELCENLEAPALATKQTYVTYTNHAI

CYP3A4, sequence (P08684 whole entry): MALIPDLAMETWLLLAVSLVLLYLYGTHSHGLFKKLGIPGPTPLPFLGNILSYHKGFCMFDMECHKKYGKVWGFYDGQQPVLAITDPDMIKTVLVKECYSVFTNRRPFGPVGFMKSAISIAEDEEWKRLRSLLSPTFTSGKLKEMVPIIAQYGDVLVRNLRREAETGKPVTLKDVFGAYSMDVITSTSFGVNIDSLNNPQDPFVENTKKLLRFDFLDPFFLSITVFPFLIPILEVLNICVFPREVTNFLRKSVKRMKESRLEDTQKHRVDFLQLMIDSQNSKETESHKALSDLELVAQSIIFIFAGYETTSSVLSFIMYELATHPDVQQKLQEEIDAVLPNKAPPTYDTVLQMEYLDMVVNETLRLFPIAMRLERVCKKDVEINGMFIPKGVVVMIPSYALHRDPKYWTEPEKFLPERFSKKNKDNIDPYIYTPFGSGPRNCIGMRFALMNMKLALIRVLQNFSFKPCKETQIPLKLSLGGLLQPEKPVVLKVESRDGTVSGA

Regarding `O=C(Nc1ccccc1)[C@]12C[C@H]1/C(=N\O)c1ccccc1O2` (stereo in doubt) [Compound 1, N-phenyl-7-(hydroxyimino)cyclopropa[b]chromen-1a-carboxamide], in the series with mGlu1, the “activity at mGlu1” value is “partial antagonist activity”. The “activity in acute rodent models of Parkinson's disease” value in series [1] is given as “active”.

Take `COc1cc(NC(=O)c2ccccn2)ccc1Cl` [Compound 3]: the CNS penetration result in [2] is listed as “CNS penetrant”.

`COc1cc(NC(=O)c2nccs2)ccc1NC(=O)c1ccccc1Cl` [Compound 9e]: the “GluMax (%Cmpd 1), rat mGlu4” value on rat mGlu4 is on record as 133.9 %Cmpd 1. In addition, in “microsomal stability”, the “Rat Clint” value is reported as “poor metabolic stability” and the CLint scaled at 1 µM was 185 mL/min/kg.

Take `COc1cc(NC(=O)c2ccccn2)ccc1NC(=O)c1ccccc1Cl` [Compound 9g, N-(4-(2-chlorobenzamido)-3-methoxyphenyl)picolinamide]: the IC50 against CYP2D6 is 12.8 µM; at CYP3A4, over 30 µM; on CYP1A2 it was over 30 µM; at CYP2C9 it was 14.3 µM. The “GluMax (%Cmpd 1), rat mGlu4” value at rat mGlu4 is 147.0 %Cmpd 1. For the same compound, the CLint scaled at 1 µM in “microsomal stability” is 42.6 mL/min/kg.

In turn, `COc1cc(NC(=O)c2cnccn2)ccc1NC(=O)c1ccccc1Cl` [Compound 9h] had an EC50 at human mGlu4 of 0.0995 µM.

Take `O=C(Nc1ccc(NC(=O)c2ccccc2Cl)c(Cl)c1)c1ccccn1` [Compound 10a, N-(3-chloro-4-(2-chlorobenzamido)phenyl)picolinamide]: the IC50 on CYP2D6 was 13.1 µM; on CYP3A4, over 30 µM; against CYP1A2, over 30 µM; on CYP2C9, 11.8 µM. In “microsomal stability”, the “Rat Clint” value is “acceptable”. In “microsomal stability”, this compound registered a CLint scaled at 1 µM of 44.9 mL/min/kg.

Consider `O=C(Nc1ccc(NC(=O)c2ccccc2Cl)c(C(F)(F)F)c1)c1ccccn1` [Compound 10b], for which the response on human mGlu4 was half-maximal at 0.556 µM (EC50).

For the compound `O=C(Nc1ccc(NC(=O)c2ccccc2Cl)cc1)c1ccccn1` [Compound 10c], it took 3.75 µM to reach a half-maximal effect on human mGlu4 (EC50).

With `O=C(Nc1ccc(NC(=O)c2ccccc2Cl)c(F)c1)c1ccccn1` [Compound 10d], the intrinsic clearance (CLint scaled) at 1 µM in “microsomal stability” is 31.2 mL/min/kg.

As for `Cc1ccccc1C(=O)Nc1ccc(NC(=O)c2ccccn2)cc1Cl` [Compound 12a, N-(3-chloro-4-(2-methylbenzamido)phenyl)picolinamide], the IC50 against CYP2D6 was 12 µM; at CYP3A4, over 30 µM; against CYP1A2, over 30 µM; against CYP1A2 (human) it was over 10 µM; against CYP2C9, 14.1 µM. The “Rat Clint” value in the series “microsomal stability” is on record as “acceptable”. The compound further had an intrinsic metabolic clearance (CLint scaled) at 1 µM in the series “microsomal stability” of 46.2 mL/min/kg.

In “microsomal stability”, `O=C(Nc1ccc(NC(=O)c2ccc(F)cc2Cl)c(Cl)c1)c1ccccn1` [Compound 12d] registered a CLint scaled at 1 µM of 54 mL/min/kg.

With `COc1ccccc1C(=O)n1ccc2cc(NC(=O)c3ccccn3)ccc21` [Compound 15], in the series “microsomal stability”, the “Rat Clint” value is listed as “poor metabolic stability” and the CLint scaled at 1 µM came out at 605 mL/min/kg.
